Structures can show the parent of a compound that is named as a salt.
Test system: MTT (mouse pheochromocytoma)
Experiment: IC50 of cell viability (ATP content)
Conditions: (24 or 48 h)
Outline: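 Library compounds were tested at 8 final concentrations (0.5 nM to 46 µM) on MTT mouse pheochromocytoma cells for 24 or 48 hrs, with readout by CellTiter-Glo ATP luminescence. Signals were normalised with positive-control wells at 100% and DMSO wells at 0%. IC50 values were obtained by a four-parameter logistic fit.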

Compound	IC50 of cell viability [µM]
CCOC(=O)O[C@]1(C(=O)OCCl)CC[C@H]2[C@@H]3CCC4=CC(=O)C=C[C@]4(C)[C@H]3[C@@H](O)C[C@@]21C [Loteprednol etabonate]	> 46
CC[C@H](C)C(=O)O[C@H]1C[C@@H](C)\C=C2\C=C/[C@H](C)[C@H](CC[C@@H]3C[C@@H](O)CC(=O)O3)[C@@H]12 [Lovastatin]	> 46
CN1CCN(CC1)\C2=N\C3=C(OC4=C2C=C(Cl)C=C4)C=CC=C3.OC(=O)CCC(O)=O [Loxapine succinate]	> 46
CCNC(=O)NCc1cccc(Cl)c1 [Lozilurea]	> 46
CCCCC(F)(F)[C@@]1(O)CC[C@H]2[C@@H](CC(=O)[C@@H]2CCCCCCC(=O)O)O1 [Lubiprostone]	> 46
O=C(NC(=O)c1c(F)cccc1F)Nc1cc(Cl)c(OC(F)(F)C(F)C(F)(F)F)cc1Cl (centres undefined) [Lufenuron]	> 46
N#C/C(=C1/SC[C@@H](c2ccc(Cl)cc2Cl)S1)n1ccnc1 [Luliconazole]	> 46
Cc1ccc(Nc2c(F)cccc2Cl)c(CC(=O)O)c1 [Lumiracoxib]	> 46
C[C@]12CC[C@@H]3[C@H](CC\C4=C\CCC[C@H]34)[C@@H]1CC[C@]2(O)C#C [Lynestrenol]	> 46
NCCCCC(NC(=O)C1CCCN1C(=O)C1CSSCC(N)C(=O)NC(Cc2ccc(O)cc2)C(=O)NC(Cc2ccccc2)C(=O)NC(CCC(N)=O)C(=O)NC(CC(N)=O)C(=O)N1)C(=O)NCC(N)=O (centres undefined) [Lypressin]	> 46
CCN(CC)C(=O)[C@H]\1CN(C)[C@@H]\2CC3=C[NH]C4=C3C(=CC=C4)C2=C1 [Lysergic acid diethylamide]	> 46
NCCCCC(N)C(=O)O (centres undefined) [Lysine]	> 46
CC(C)(C)NCC(O)c1cc(Cl)c(N)c(C(F)(F)F)c1 (centres undefined) [MABUTEROL HYDROCHLORIDE]	> 46
O=C1[O][Mg]2([O]C(=O)c3ccccc3[O]2)[O]c2ccccc21 [MAGNESIUM SALICYLATE]	> 46
CCOC(=O)CC(SP(=S)(OC)OC)C(=O)OCC (centres undefined) [MALATHION]	> 46
O=C(O)/C=C/C(=O)O [MALEIC ACID]	> 46
O=C(O)CC(O)C(=O)O.[NaH] (centres undefined) [MALIC ACID]	> 46
CNCCCC12CCC(c3ccccc31)c1ccccc12 [MAPROTILINE]	> 46
Cc1cc(C)c(NC(=O)CN(CC(=O)O)CC(=O)O)c(C)c1Br [MEBROFENIN]	> 46
CNC1(C)C2CCC(C2)C1(C)C (centres undefined) [MECAMYLAMINE]	> 46
CNC(=O)NC(O)C(Cl)(Cl)Cl (centres undefined) [MECLORALUREA]	> 46
O=P(O)(O)CP(=O)(O)O [MEDRONIC ACID]	> 46
CC1CC2C(CC[C@]3(C)C2CC[C@@]3(OC(C)=O)C(C)=O)[C@]\4(C)CCC(=O)\C=C14 (some centres undefined) [MEDROXYPROGESTERONE ACETATE]	> 46

Compound	IC50 of cell viability [µM]
CCN(CC)CCNC(=O)COc1ccc(OC)cc1.Cl [MEFEXAMIDE]	> 46
CN(CC1(C)CCCO1)[S+](=O)([O-])c1ccc(Cl)c([S+](N)(=O)[O-])c1 (centres undefined) [MEFRUSIDE]	> 46
COc1ccc2[nH]cc(CCNC(C)=O)c2c1 [MELATONIN]	> 46
CCCCC/C=C/C/C=C/CCCCCCCC(=O)NC(C)c1ccccc1 (centres undefined) [MELINAMIDE]	> 46
CN1\C(=C(\O)C2=CC=CC=C2[S+]1([O-])=O)C(=O)NC3=NC=C(C)S3 [MELOXICAM]	> 46
CC1CCN(CCCC(=O)c2ccc(F)cc2)CC1 [MELPERONUM]	> 46
CC(C)(C)NC[C@H](O)c1ccc(O)cc1Cl [MELUADRINE TARTRATE]	> 46
CC12CC3CC(C)(C1)CC(N)(C3)C2 [MEMANTINE]	> 46
C\C1=C\C(=O)C2=C(C=CC=C2)C1=O [MENADIONE]	> 46
CC1CCC(C(C)C)C(O)C1 (centres undefined) [MENTHOL]	> 46
CC1CCC(C(C)C)C(=O)C1 (centres undefined) [MENTHONE]	> 46
CC1CCC(C(C)C)C(OC(=O)c2ccccc2O)C1 (centres undefined) [MENTHYL SALICYLATE]	> 46
CNc1ccc(C(=O)CC(O)CCC(C)C2OC(=O)CC(O)CC(=O)CC(O)CC(O)CC(O)CC(O)CC3(O)CC(O)C(C(=O)OC)C(CC(O[C@@H]4OC(C)C(O)C(N)C4O)/C=C/C=C/C=C/C=C/C=C/C=C/C=C/C2C)O3)cc1 (some centres undefined) [MEPARTRICIN]	> 46
Cc1ccccc1OCC(O)CO (centres undefined) [MEPHENESIN]	> 46
CC[C@@]1(c2ccccc2)NC(=O)N(C)C1=O [MEPHENYTOIN]	> 46
Cc1cccc(C)c1NC(=O)C1CCCCN1C.Cl (centres undefined) [MEPIVACAINE HYDROCHLORIDE]	> 46
COc1ccc(CN(CCN(C)C)c2ccccn2)cc1 [MEPYRAMINE]	> 46
COc1ccc(O)cc1 [MEQUINOL]	> 46
O=[S+]([O-])(O)CCS [MESNA]	> 46
CN1CCCCC1CCN1c2ccccc2Sc2ccc(S(C)=O)cc21 (centres undefined) [MESORIDAZINE]	> 46
C#C[C@]1(O)CC[C@H]2[C@@H]3CCc4cc(OC)ccc4[C@H]3CC[C@@]21C [MESTRANOL]	> 46
CN1C[C@@H](NS(=O)(=O)N(C)C)C[C@@H]2c3cccc4c3c(cn4C)C[C@H]21 [MESULERGINE]	> 46
CC(=O)Nc1cccc(O)c1 [METACETAMOL]	> 46

Compound	IC50 of cell viability [µM]
C=NC(C(=O)NC1C(=O)N2C1SC(C)(C)C2C(=O)[O-])c1ccccc1.[Na+] (centres undefined) [METAMPICILLIN SODIUM]	> 46
Cc1cc(C)cc(OCC2CNC(=O)O2)c1 (centres undefined) [METAXALONE]	> 46
CCCCCCC(=O)O[C@H]1CC[C@H]2[C@@H]3CCC4CC(=O)\C=C(C)/[C@]4(C)[C@H]3CC[C@]12C (some centres undefined) [METENOLONE ENANTHATE]	> 46
CN(C)CCN(Cc1cccs1)c1ccccn1.Cl [METHAPYRILENE HYDROCHLORIDE]	> 46
C=C1Nc2ccccc2C(=O)N1c1ccccc1C [METHAQUALONE]	> 46
CCC1(CC)C(=O)NC(=O)N(C)C1=O [METHARBITAL]	> 46
COc1cccc(OC)c1C(=O)NC1C(=O)N2C1SC(C)(C)C2C(=O)[O-].[Na+] (centres undefined) [METHICILLIN SODIUM]	> 46
CSCCC(N)C(=O)O (centres undefined) [METHIONINE]	> 46
CSc1ccc2c(c1)C(N1CCN(C)CC1)Cc1ccccc1S2 (centres undefined) [METHIOTHEPIN]	> 46
COc1ccc(OC)c(C(O)C(C)N)c1.Cl (centres undefined) [METHOXAMINE HYDROCHLORIDE]	> 46
COc1ccc(CCN(C)CCCC(C#N)(c2cc(OC)c(OC)c(OC)c2)C(C)C)cc1OC (centres undefined) [METHOXY VERAPAMIL]	> 46
COC(F)(F)C(Cl)Cl [METHOXYFLURANE]	> 46
CN1C(CCl)Nc2cc(Cl)c([S+](N)(=O)[O-])cc2[S+]1(=O)[O-] (centres undefined) [METHYCLOTHIAZIDE]	> 46
COC(=O)CCC(=O)CN [METHYL AMINOLEVULINATE HYDROCHLORIDE]	> 46
COC(=O)c1cccnc1 [METHYL NICOTINATE]	> 46
C=CCCCCCCCCC(=O)OC [METHYL UNDECENOATE]	> 46
CC[N+](C)(CC)CCOC(=O)C(O)(c1ccccc1)c1ccccc1 [METHYLBENACTYZIUM BROMIDE]	> 46
Cn1sc(Cl)cc1=O [METHYLCHLOROISOTHIAZOLINONE]	> 46
CC[C@@H](CO)NC(=O)[C@H]/1CN(C)[C@@H]2CC3=C[NH]C4=C3C(=CC=C4)\C2=C1 [METHYLERGOMETRINE]	> 46
C[S+](C)CC[C@H](N)C(=O)O [METHYLMETHIONINE SULFONIUM CHLORIDE]	> 46
C[C@]1(O)CC[C@H]2[C@@H]3CCC/4=C/C(=O)CC[C@]4(C)[C@H]3CC[C@]12C [METHYLTESTOSTERONE]	> 46
C\C1=C\C(=O)NC(=S)N1 [METHYLTHIOURACIL]	> 46
CC[C@@H](CO)NC(=O)[C@H]\1CN(C)[C@@H]2CC3=C[N](C)C4=CC=CC(=C34)/C2=C1 [METHYSERGIDE]	> 46
